Patent publication US12252481B2, “Anti-viral compounds” (Aligos Therapeutics, Inc., priority 2021, dated 2025)
Like-named read-outs stand apart in the source and are kept apart here.

Assays:
HRV3C = target: T1, HRV3C (Human rhinovirus 14, UniProt P03303); experiment: biochemical; parameters: species or system HRV
T1 construct: 3CLpro and HRV3C was added using a Multidrop Combi

SARS-Cov-2 3CLpro = target: T2, SARS-Cov-2 3CLpro (Severe acute respiratory syndrome coronavirus 2, UniProt P0DTD1); experiment: biochemical
T2 construct: 3CLpro and HRV3C was added using a Multidrop Combi

[1] = tested on: B.1.1.7 lineage SARS-CoV-2; experiment: microbe, parasite or virus in culture; format: cell-based
[2] = tested on: A549-dual_ACE2_TMPRSS2 cells; settings: read-out: A549-dual_ACE2_TMPRSS2 (CC50); assay medium without virus, MTS, numeric values
[3] = tested on: SARS-CoV-2-GHB-03021/2020; format: cell-based; settings: read-out: VeroE6 + CP (EC50)
[4] = tested on: human beta-coronavirus OC43; experiment: OC43 coronavirus antiviral assay in HeLa cells (cytopathic effect, cell-titer-glo); format: cell-based; settings: 6 days at 33° C., read-out: EC50 (class)
human cathepsin L = target: T3, human cathepsin L (Homo sapiens, UniProt P07711); experiment: Cathepsin L assay (Z-FR-AMC fluorescence); format: biochemical; settings: 10 pM human cathepsin L, 30 mins preincubation, Z-FR-AMC 2 μM
T3 construct: purchased R&D Systems
T3 sequence (P07711 114-333): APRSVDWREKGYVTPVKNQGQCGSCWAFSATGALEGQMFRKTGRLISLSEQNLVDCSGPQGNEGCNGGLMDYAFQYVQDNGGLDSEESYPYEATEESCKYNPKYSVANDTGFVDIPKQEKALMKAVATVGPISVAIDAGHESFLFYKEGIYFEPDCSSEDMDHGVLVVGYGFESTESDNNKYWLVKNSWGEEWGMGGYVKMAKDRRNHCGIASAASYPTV
Procedure, shortened: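 Human cathepsin L (10 pM) was preincubated 30 min with compound, then reactions were started with Z-FR-AMC substrate (2 μM final). AMC fluorescence (355/460 nm) was read every 2 min over 30 min. IC50 came from a four-parameter curve fit.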

Vero E6-eGFP cells = settings: read-out: VeroE6 + CP (CC50), absence of virus, numeric values
in vitro [5] = settings: human
in vitro [6] = settings: human; remark: listed apart in the source
SARS-CoV-2 = settings: cited from earlier work
3CLpro = 3CLpro (Severe acute respiratory syndrome coronavirus 2, UniProt P0DTD1); settings: cited from earlier work
[7] = Cytotoxicity in HeLa cells without OC43 virus (cell-titer-glo); settings: human
[8] = HRV3C, 30 mins preincubation, SAMDI-MS, read-out: HRV IC50 (bound)
[9] = 3CLpro, 30 mins preincubation, SAMDI-MS, read-out: SARS-Cov-2 IC50 (class)
[10] = read-out: A549-dual_ACE2_TMPRSS2 (EC50)
[11] = Betacoronavirus 1, OC43, HeLa, 144 h
[12] = Severe acute respiratory syndrome coronavirus 2, 96 h; read-out: A549-dual_ACE2_TMPRSS2 (EC50)

T1 sequence (P03303 1538-1719): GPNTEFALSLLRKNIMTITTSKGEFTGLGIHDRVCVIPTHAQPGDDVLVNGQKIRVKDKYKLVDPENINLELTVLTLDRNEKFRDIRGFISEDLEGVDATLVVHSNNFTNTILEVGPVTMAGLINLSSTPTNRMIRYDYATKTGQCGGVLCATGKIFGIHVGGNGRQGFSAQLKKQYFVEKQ

CC(C)(C)[C@H](NC(=O)C1(C(F)(F)F)CC1)C(=O)N1C[C@H]2[C@@H]([C@H]1C(=O)N[C@H](C#N)C[C@@H]1CCNC1=O)[C@H]1C=C[C@@H]2C1 [Example 20, (1R,2S,3S,6R,7S)—N-[(1S)-1-cyano-2-[(3S)-2-oxopyrrolidin-3-yl]ethyl]-4-[(2S)-3,3-dimethyl-2-{[1-(trifluoromethyl)cyclopropyl]formamido}butanoyl]-4-azatricyclo[5.2.1.0^{2,6}]dec-8-ene-3-carboxamide]
IC50 (HRV3C; [8]): > 10000 nM
IC50 (SARS-Cov-2 3CLpro; [9]): < 20 nM
EC50 [1, 10]: 100 to 1000 nM
CC50 [2]: > 10000 nM
EC50 [3]: < 100 nM
EC50 [4]: < 100 nM
IC50 (human cathepsin L): ≥ 10000 nM
CC50 (HeLa cells): > 100000 nM
CC50 (Vero E6-eGFP cells): > 50000 nM

CC(C)(C)[C@H](NC(=O)C1CC1)C(=O)N1C[C@H]2[C@@H]([C@H]1C(=O)N[C@H](C#N)C[C@@H]1CCNC1=O)[C@H]1C=C[C@@H]2C1 [Example 21, (1R,2S,3S,6R,7S)—N-[(1S)-1-cyano-2-[(3S)-2-oxopyrrolidin-3-yl]ethyl]-4-[(2S)-2-(cyclopropylformamido)-3,3-dimethylbutanoyl]-4-azatricyclo[5.2.1.0^{2,6}]dec-8-ene-3-carboxamide]
IC50 (HRV3C; [8]): > 10000 nM
IC50 (SARS-Cov-2 3CLpro; [9]): < 20 nM
EC50 [1, 10]: < 100 nM
CC50 [2]: > 10000 nM
EC50 [3]: < 100 nM
EC50 [4]: < 100 nM
IC50 (human cathepsin L): ≥ 10000 nM
CC50 (HeLa cells): > 100000 nM
CC50 (Vero E6-eGFP cells): > 50000 nM

CC(C)(C)[C@H](NC(=O)C(F)(F)Cl)C(=O)N1C[C@@H]2[C@H]3C[C@@H]([C@@H]2[C@H]1C(=O)N[C@H](C#N)C[C@@H]1CCNC1=O)[C@H](F)C3 [Compound 134, (1S,3aR,4S,6R,7S,7aR)-2-((S)-2-(2-chloro-2,2-difluoroacetamido)-3,3-dimethylbutanoyl)-N-((S)-1-cyano-2-((S)-2-oxopyrrolidin-3-yl)ethyl)-6-fluorooctahydro-1H-4,7-methanoisoindole-1-carboxamide]
IC50 (HRV3C; [8]): > 500 nM
IC50 (SARS-Cov-2 3CLpro; [9]): < 20 nM
CC50 (in vitro [5]): > 100000 nM
EC50 [4, 11]: < 100 nM
IC50 (human cathepsin L): ≥ 10000 nM

N#C[C@H](C[C@@H]1CCNC1=O)NC(=O)[C@@H]1[C@@H]2[C@H](CN1C(=O)[C@@H]1C[C@]13CCCc1ccccc13)[C@@H]1C=C[C@H]2C1 (single isomer, unassigned) [Example 8]
IC50 (HRV3C; [8]): > 10000 nM
IC50 (SARS-Cov-2 3CLpro; [9]): 20 to 200 nM
EC50 [1, 10]: < 100 nM
CC50 [2]: > 10000 nM
EC50 [4]: 100 to 1000 nM
IC50 (human cathepsin L): ≥ 10000 nM
CC50 (HeLa cells): > 100000 nM
CC50 (Vero E6-eGFP cells): > 50000 nM

Cc1cc(C(=O)N[C@H](C(=O)N2C[C@H]3[C@@H]([C@H]2C(=O)N[C@H](C#N)C[C@@H]2CCNC2=O)[C@H]2C=C[C@@H]3C2)C(C)(C)C)no1 [Example 4, (1R,2S,3S,6R,7S)—N-[(1S)-1-cyano-2-[(3S)-2-oxopyrrolidin-3-yl]ethyl]-4-[(2S)-3,3-dimethyl-2-[(5-methyl-1,2-oxazol-3-yl)formamido]butanoyl]-4-azatricyclo[5.2.1.0^{2,6}]dec-8-ene-3-carboxamide]
IC50 (HRV3C; [8]): > 10000 nM
IC50 (SARS-Cov-2 3CLpro; [9]): 20 to 200 nM
EC50 [1, 10]: 100 to 1000 nM
CC50 [2]: > 10000 nM
EC50 [3]: 100 to 1000 nM
EC50 [4]: < 100 nM
IC50 (human cathepsin L): ≥ 10000 nM
CC50 (HeLa cells): > 100000 nM
CC50 (Vero E6-eGFP cells): > 50000 nM

CC(C)(C)[C@H](NC(=O)c1ccccn1)C(=O)N1C[C@H]2[C@@H]([C@H]1C(=O)N[C@H](C#N)C[C@@H]1CCNC1=O)[C@H]1C=C[C@@H]2C1 [Example 5, (1R,2S,3S,6R,7S)—N-[(1S)-1-cyano-2-[(3S)-2-oxopyrrolidin-3-yl]ethyl]-4-[(2S)-3,3-dimethyl-2-(pyridin-2-ylformamido)butanoyl]-4-azatricyclo[5.2.1.0^{2,6}]dec-8-ene-3-carboxamide]
IC50 (HRV3C; [8]): > 10000 nM
IC50 (SARS-Cov-2 3CLpro; [9]): 200 to 2000 nM
EC50 [1, 10]: 1000 to 10000 nM
CC50 [2]: > 10000 nM
EC50 [3]: 1000 to 10000 nM
EC50 [4]: 100 to 1000 nM
IC50 (human cathepsin L): ≥ 10000 nM
CC50 (HeLa cells): > 100000 nM
CC50 (Vero E6-eGFP cells): > 50000 nM

CC(C)(C)[C@H](NC(=O)C(F)(F)F)C(=O)N1C[C@H]2[C@@H]([C@H]1C(=O)N[C@H](C#N)CC1Cc3ccccc3NC1=O)[C@H]1C=C[C@@H]2C1 (stereo partly drawn) [Example 29, (1S,3aR,4S,7R,7aS)—N-((1S)-1-cyano-2-(2-oxo-1,2,3,4-tetrahydroquinolin-3-yl)ethyl)-2-((S)-3,3-dimethyl-2-(2,2,2-trifluoroacetamido)butanoyl)-2,3,3a,4,7,7a-hexahydro-1H-4,7-methanoisoindole-1-carboxamide]
CC50 (in vitro [6]): > 10000 nM
IC50 (HRV3C; [8]): > 10000 nM
IC50 (SARS-Cov-2 3CLpro; [9]): < 20 nM
EC50 [1, 12]: < 100 nM
CC50 (in vitro [5]): > 10000 nM
EC50 [3]: < 100 nM
EC50 [4, 11]: < 100 nM
IC50 (human cathepsin L): ≥ 10000 nM

CC(C)(C)[C@H](NC(=O)C(F)(F)F)C(=O)N1C[C@@H]2[C@@H]3CC[C@@H](C3)[C@@H]2[C@H]1C(=O)N[C@H](C#N)CC1Cc2ccccc2NC1=O (stereo partly drawn) [Example 31, (1S,3aR,4R,7S,7aS)—N-((1S)-1-cyano-2-(2-oxo-1,2,3,4-tetrahydroquinolin-3-yl)ethyl)-2-((S)-3,3-dimethyl-2-(2,2,2-trifluoroacetamido)butanoyl)octahydro-1H-4,7-methanoisoindole-1-carboxamide]
CC50 (in vitro [6]): > 10000 nM
IC50 (HRV3C; [8]): > 10000 nM
IC50 (SARS-Cov-2 3CLpro; [9]): < 20 nM
EC50 [1, 12]: < 100 nM
CC50 (in vitro [5]): > 10000 nM
EC50 [3]: 100 to 1000 nM
EC50 [4, 11]: 100 to 1000 nM
IC50 (human cathepsin L): ≥ 10000 nM

Cc1cn(C(C(=O)N2C[C@H]3[C@@H]([C@H]2C(=O)N[C@H](C#N)C[C@@H]2CCNC2=O)[C@H]2C=C[C@@H]3C2)C(C)(C)C)nn1 (stereo partly drawn) [Compound 53]
CC50 (in vitro [6]): > 10000 nM
IC50 (HRV3C; [8]): > 10000 nM
IC50 (SARS-Cov-2 3CLpro; [9]): 20 to 200 nM
EC50 [1, 12]: 1000 to 10000 nM
CC50 (in vitro [5]): > 10000 nM
EC50 [3]: 100 to 1000 nM
EC50 [4, 11]: 1000 to 10000 nM
IC50 (human cathepsin L): ≥ 10000 nM

CC(C)(C)[C@H](NC(=O)C(F)(F)F)C(=O)N1C[C@@H]2[C@@H]3CC[C@@H](C3)[C@@H]2[C@H]1C(=O)N[C@H](C#N)C[C@@H]1CC2(CC2)NC1=O [Example 15, (1S,3aR,4R,7S,7aS)-N-((S)-1-cyano-2-((R)-5-oxo-4-azaspiro[2.4]heptan-6-yl)ethyl)-2-((S)-3,3-dimethyl-2-(2,2,2-trifluoroacetamido)butanoyl)octahydro-1H-4,7-methanoisoindole-1-carboxamide]
CC50 (in vitro [6]): > 10000 nM
IC50 (HRV3C; [8]): > 10000 nM
IC50 (SARS-Cov-2 3CLpro; [9]): < 20 nM
EC50 [1, 12]: < 100 nM
EC50 [3]: < 100 nM
IC50 (human cathepsin L): ≥ 10000 nM

CO[C@H](C(C)C)[C@H](NC(=O)C(F)(F)C(F)(F)F)C(=O)N1C[C@H]2[C@@H]([C@H]1C(=O)N[C@H](C#N)C[C@@H]1CCNC1=O)[C@H]1C=C[C@@H]2C1 [Compound 135]
CC50 (in vitro [6]): > 1000 nM
IC50 (HRV3C; [8]): > 500 nM
IC50 (SARS-Cov-2 3CLpro; [9]): < 20 nM
EC50 [1, 12]: < 100 nM
IC50 (human cathepsin L): ≥ 10000 nM

CN1CCN(C(=O)N[C@@H](Cc2ccccc2)C(=O)N[C@H](/C=C/S(=O)(=O)c2ccccc2)CCc2ccccc2)CC1 [Example K117777]
antiviral effect (SARS-CoV-2; A549-ACE2 when TMPRSS2 was expressed (Steuten et al.)): abolished
inhibition of SARS-CoV-2 (SARS-CoV-2; VeroE6, A549-ACE2 and/or HeLa-ACE2 (Mellott et al.)): potent inhibition
inhibitory effect on the 3CLpro (3CLpro): lacks an inhibitory effect

CC(C)(C)[C@H](NC(=O)C(F)(F)F)C(=O)N1C[C@H]2[C@@H]([C@H]1C(=O)N[C@H](C#N)C[C@@H]1CCNC1=O)[C@H]1C=C[C@@H]2C12CC2 [Example 25, (1′R,2′S,3′S,6′R,7′S)—N-[(1S)-1-cyano-2-[(3S)-2-oxopyrrolidin-3-yl]ethyl]-4′-[(2S)-3,3-dimethyl-2-(2,2,2-trifluoroacetamido)butanoyl]-4′-azaspiro[cyclopropane-1,10′-tricyclo[5.2.1.0^{2,6}]decan]-8′-ene-3′-carboxamide]
CC50 at 6 days [7]: > 100000 nM
CC50 (in vitro [6]): > 10000 nM
IC50 (HRV3C): > 10000 nM
IC50 (SARS-Cov-2 3CLpro): < 20 nM
EC50 ([1]; Severe acute respiratory syndrome coronavirus 2, 96 h, read-out: A549-dual_ACE2_TMPRSS2 (EC50)): 100 to 1000 nM
EC50 [3]: 100 to 1000 nM
EC50 [4, 11]: < 100 nM
IC50 (human cathepsin L): ≥ 10000 nM

[2H]C1=C[C@@H]2C[C@H]1[C@H]1[C@@H]2CN(C(=O)[C@@H](NC(=O)C(F)(F)C(F)(F)F)C(C)(C)C)[C@@H]1C(=O)N[C@H](C#N)C[C@@H]1CCNC1=O [Compound 125]
IC50 (HRV3C; [8]): > 500 nM
IC50 (SARS-Cov-2 3CLpro; [9]): < 20 nM
CC50 (in vitro [5]): > 100000 nM
EC50 [4, 11]: < 100 nM
